Measurements reported in ChEMBL document CHEMBL3817761, “Chenopodium album metabolites act as dual topoisomerase inhibitors and induce apoptosis in the MCF7 cell line” (Medchemcomm, 2016).
Calls of active or inactive are those of the source. The rule behind the calls is not given here.

Key:
[1] = biological target: T1, DNA topoisomerase 1 (Homo sapiens) (UniProt P11387); experiment: Poisoning activity at topoisomerase 1 in human MCF7 cells at 10 uM after 12 hrs by immunoband depletion assay; type: cell-based
T1 sequence (whole entry): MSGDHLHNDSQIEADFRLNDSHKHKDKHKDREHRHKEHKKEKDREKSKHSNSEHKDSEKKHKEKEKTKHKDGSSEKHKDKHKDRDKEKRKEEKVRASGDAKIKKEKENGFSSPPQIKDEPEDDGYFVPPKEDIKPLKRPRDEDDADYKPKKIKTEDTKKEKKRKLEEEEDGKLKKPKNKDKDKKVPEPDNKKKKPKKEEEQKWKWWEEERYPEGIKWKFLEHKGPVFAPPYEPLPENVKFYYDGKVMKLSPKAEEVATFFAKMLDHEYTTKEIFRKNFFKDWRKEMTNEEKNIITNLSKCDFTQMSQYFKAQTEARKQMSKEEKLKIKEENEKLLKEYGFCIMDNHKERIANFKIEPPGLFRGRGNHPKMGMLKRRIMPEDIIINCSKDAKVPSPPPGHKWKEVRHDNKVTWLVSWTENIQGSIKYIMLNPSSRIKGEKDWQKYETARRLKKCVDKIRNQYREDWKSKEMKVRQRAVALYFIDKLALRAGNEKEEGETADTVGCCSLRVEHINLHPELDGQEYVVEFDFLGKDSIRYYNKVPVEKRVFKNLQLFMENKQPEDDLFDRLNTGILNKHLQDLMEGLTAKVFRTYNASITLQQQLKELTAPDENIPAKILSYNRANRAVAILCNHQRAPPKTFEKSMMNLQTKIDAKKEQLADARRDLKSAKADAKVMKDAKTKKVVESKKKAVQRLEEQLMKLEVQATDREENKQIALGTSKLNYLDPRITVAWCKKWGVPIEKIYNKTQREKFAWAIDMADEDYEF

[2] = biological target: DNA topoisomerase 2-alpha (Homo sapiens) (UniProt P11388); experiment: Poisoning activity at topoisomerase 2 in human MCF7 cells at 10 uM after 12 hrs by immunoband depletion assay; type: cell-based
Sequence of DNA topoisomerase 2-alpha (Homo sapiens) (P11388 whole entry): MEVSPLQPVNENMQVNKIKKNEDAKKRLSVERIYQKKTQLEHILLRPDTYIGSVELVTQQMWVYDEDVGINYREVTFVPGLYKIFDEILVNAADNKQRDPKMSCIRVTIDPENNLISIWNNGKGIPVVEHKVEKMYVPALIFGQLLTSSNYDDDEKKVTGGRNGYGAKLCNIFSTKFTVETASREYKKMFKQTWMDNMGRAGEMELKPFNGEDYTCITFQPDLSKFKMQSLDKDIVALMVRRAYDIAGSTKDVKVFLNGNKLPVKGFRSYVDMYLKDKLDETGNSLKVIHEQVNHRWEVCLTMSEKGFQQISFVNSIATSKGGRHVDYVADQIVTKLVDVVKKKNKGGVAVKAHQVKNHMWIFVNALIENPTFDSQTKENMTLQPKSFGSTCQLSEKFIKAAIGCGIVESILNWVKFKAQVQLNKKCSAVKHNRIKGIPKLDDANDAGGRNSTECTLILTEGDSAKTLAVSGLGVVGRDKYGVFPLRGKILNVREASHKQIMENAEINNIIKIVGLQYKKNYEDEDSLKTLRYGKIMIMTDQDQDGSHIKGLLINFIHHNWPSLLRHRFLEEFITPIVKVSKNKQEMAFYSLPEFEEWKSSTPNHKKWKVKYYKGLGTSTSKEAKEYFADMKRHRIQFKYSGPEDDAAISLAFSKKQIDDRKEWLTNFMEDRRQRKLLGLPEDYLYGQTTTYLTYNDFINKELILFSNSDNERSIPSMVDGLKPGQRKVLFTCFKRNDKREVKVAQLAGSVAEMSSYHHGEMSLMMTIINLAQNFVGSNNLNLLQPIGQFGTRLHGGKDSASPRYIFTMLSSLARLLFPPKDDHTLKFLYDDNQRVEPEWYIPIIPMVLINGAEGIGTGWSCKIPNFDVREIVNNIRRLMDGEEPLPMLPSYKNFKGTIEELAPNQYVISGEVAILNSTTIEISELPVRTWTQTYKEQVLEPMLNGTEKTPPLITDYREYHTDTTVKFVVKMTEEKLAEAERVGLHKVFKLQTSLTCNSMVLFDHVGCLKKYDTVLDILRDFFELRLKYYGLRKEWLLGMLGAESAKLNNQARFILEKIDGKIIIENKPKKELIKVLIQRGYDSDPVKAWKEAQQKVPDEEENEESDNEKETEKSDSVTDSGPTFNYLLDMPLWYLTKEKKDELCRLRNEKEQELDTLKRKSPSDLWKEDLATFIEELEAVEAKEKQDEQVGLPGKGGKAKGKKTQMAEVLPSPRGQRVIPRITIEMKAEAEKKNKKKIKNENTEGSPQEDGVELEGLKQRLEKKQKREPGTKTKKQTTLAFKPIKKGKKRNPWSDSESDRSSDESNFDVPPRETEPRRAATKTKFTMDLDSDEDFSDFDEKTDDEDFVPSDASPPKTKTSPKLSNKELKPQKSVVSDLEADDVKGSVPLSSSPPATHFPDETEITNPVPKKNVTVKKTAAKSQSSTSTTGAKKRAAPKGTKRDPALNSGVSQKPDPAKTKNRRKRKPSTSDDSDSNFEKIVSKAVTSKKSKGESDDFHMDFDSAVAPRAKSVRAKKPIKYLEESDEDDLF

[3] = tested on: MCF7; experiment: Induction of mitochondrial membrane depolarization in human MCF7 cells assessed as ratio of red to green fluorescence after 24 to 48 hrs by JC-1 staining based FACS assay (reference value: 9.1); type: functional
[4] = tested on: MCF7; experiment: Induction of mitochondrial membrane depolarization in human MCF7 cells after 24 to 48 hrs by JC-1 staining based FACS assay (reference value: 9.9%); type: functional

Structure (SMILES): CC[C@@]1(O)C(=O)OCc2c1cc1n(c2=O)Cc2cc3ccccc3nc2-1
- Activity [1]: Active

Structure (SMILES): COc1cc([C@@H]2c3cc4c(cc3[C@@H](O[C@@H]3O[C@@H]5CO[C@@H](C)O[C@H]5[C@H](O)[C@H]3O)[C@H]3COC(=O)[C@H]23)OCO4)cc(OC)c1O
- Activity [2]: Active

Structure (SMILES): N#CC(C#N)=NNc1cccc(Cl)c1 [CARBONYL CYANIDE M-CHLOROPHENYLHYDRAZONE]
- Ratio [3]: 0.014
- Activity [4]: 98.8%
